The values below come from patent US20260022142A1, “MACROCYCLIC IMMUNOMODULATORS” (Bristol-Myers Squibb Company, priority 2022, published 2026).

The structures appear in SMILES notation. Numbered stars: 1 amine (or outer) side, 2 acyl side, 3 side chain; on linkers, the order of the positions; unused ones are H or OH. Bridge positions count the residues as written; N and C are the ends. Square brackets hold non-standard residues; d marks the D form. Peptide text beside a SMILES is read from it. * marks the point of attachment. ξ: configuration not given here. Phe(4-CH2CH2COOH) = N[C@@H](Cc1ccc(CCC(=O)O)cc1)C(=O)O; Phe(3-CF3) = N[C@@H](Cc1cccc(C(F)(F)F)c1)C(=O)O; Phe(4-CONH2) = NC(=O)c1ccc(C[C@H](N)C(=O)O)cc1; Phe(4-COOH) = N[C@@H](Cc1ccc(C(=O)O)cc1)C(=O)O; Bip = N[C@@H](Cc1ccc(-c2ccccc2)cc1)C(=O)O; Phe(3-CN) = N#Cc1cccc(C[C@H](N)C(=O)O)c1; NH(CH2)14COOH = O=C(O)CCCCCCCCCCCCCCN*; Phe(3-Me) = Cc1cccc(C[C@H](N)C(=O)O)c1; γGlu = O=C(O)[C@H](CCC(=O)[*:2])N[*:1]; NH(CH2)12COOH = O=C(O)CCCCCCCCCCCCN*; Val(3-OH) = CC(C)(O)[C@H](N)C(=O)O; hArg = N=C(N)NCCCC[C@H](N)C(=O)O; 4Pal = N[C@@H](Cc1ccncc1)C(=O)O; Cha = N[C@@H](CC1CCCCC1)C(=O)O; Cit = NC(=O)NCCC[C@H](N)C(=O)O; Thr(3ξ) = CC(O)[C@H](N)C(=O)O; 12Ado = NCCCCCCCCCCCC(=O)O; hSer = N[C@@H](CCO)C(=O)O; Carboxymethyl = O=C(O)C*; Orn = NCCC[C@H](N)C(=O)O; Aun = NCCCCCCCCCCC(=O)O; Dab = NCC[C@H](N)C(=O)O; Abu = CC[C@H](N)C(=O)O; Dap = NC[C@H](N)C(=O)O; AEEA = NCCOCCOCC(=O)O

The target of this assay is T1, PD-1/PD-L1 interaction (PE-labeled human PD-L1-Ig binding to Jurkat cell line over-expressing human PD-1) (Homo sapiens, UniProt Q15116).
T1 construct: expressed in transfected cells; host or cells: Jurkat
T1 sequence (Q15116 25-288): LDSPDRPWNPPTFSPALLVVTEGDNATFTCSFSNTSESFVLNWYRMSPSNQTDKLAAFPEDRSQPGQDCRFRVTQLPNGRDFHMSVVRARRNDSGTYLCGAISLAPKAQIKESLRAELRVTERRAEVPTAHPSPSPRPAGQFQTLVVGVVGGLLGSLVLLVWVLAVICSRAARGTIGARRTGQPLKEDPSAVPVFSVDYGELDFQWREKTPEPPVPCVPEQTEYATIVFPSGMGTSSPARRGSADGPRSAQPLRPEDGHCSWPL
Nature of the assay: Jurkat-PD-1 Cell Binding High-Content Screening Assay (CBA). Type of assay: cell-based. Conditions: Jurkat cell line over-expressing human PD-1; PE-labeled PD-L1-Ig 20 nM final; read-out: Jurkat hPD1-PDL1 IC50. A digest of the protocol: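 Read-out is high-content imaging of cell-bound phycoerythrin-tagged PD-L1-Ig on fixed, Hoechst-counterstained Jurkat cells that over-express human PD-1. Compound exposure lasts 2 h at 37° C before the labeled ligand (20 nM final) is added for a further hour.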
The term IC50 denotes the midpoint of a concentration-inhibition curve. Take `Cc1cccc(C[C@@H]2NC(=O)[C@H](CC(=O)O)NC(=O)[C@H](Cc3ccc(OCC(=O)O)cc3)NC(=O)[C@H](Cc3ccncc3)NC(=O)CSC[C@@H](C(=O)NCCOCCOCC(=O)NCCCCCCCCCCC(=O)O)NC(=O)[C@H](C(C)O)NC(=O)[C@H](C(C)(C)O)NC(=O)[C@H](CC3CCCCC3)NC(=O)[C@H](CCN)NC(=O)[C@@H](CC(C)C)NC(=O)[C@H](CCCN)NC(=O)[C@H](Cc3ccc(O)cc3)NC(=O)[C@H](Cc3ccc(-c4ccccc4)cc3)NC(=O)[C@H](Cc3ccc(C(N)=O)cc3)NC2=O)c1` (stereo partly drawn) [Compound 3730] ({CH2CO}-[4Pal]Y(Carboxymethyl)D[Phe(3-Me)][Phe(4-CONH2)][Bip]Y[Orn][dL][Dab][Cha][Val(3-OH)][Thr(3ξ)]C[AEEA][Aun]-OH; thioether N-14): the IC50 is 22.8 nM.

On to `CC(C)C[C@H]1NC(=O)[C@H](CCCN)NC(=O)[C@H](C(C)C)NC(=O)[C@H](Cc2ccc(-c3ccccc3)cc2)NC(=O)[C@H](C(C)C)NC(=O)[C@H](Cc2c[nH]c3ccccc23)NC(=O)[C@H](CC(=O)O)NC(=O)[C@H](Cc2ccc(OCC(=O)O)cc2)NC(=O)[C@H](CCCNC(=N)N)NC(=O)CSC[C@@H](C(=O)N[C@@H](CCCN)C(=O)NCCCCCCCCCCC(=O)O)NC(=O)[C@H](CCC(=O)O)NC(=O)[C@H](C(C)C)NC(=O)[C@H](CC2CCCCC2)NC(=O)[C@H](CCN)NC1=O` [Compound 3345] ({CH2CO}-RY(Carboxymethyl)DWV[Bip]V[Orn][dL][Dab][Cha]VEC[Orn][Aun]-OH; thioether N-14), for which the IC50 was 9.1 nM.

For the compound `Cc1cccc(C[C@@H]2NC(=O)[C@H](CC(=O)O)NC(=O)[C@H](Cc3ccc(OCC(=O)O)cc3)NC(=O)[C@H](CN)NC(=O)CSC[C@@H](C(=O)N[C@@H](CCN)C(=O)NCCCCCCCCCCC(=O)O)NC(=O)[C@H](CCO)NC(=O)[C@H](C(C)C)NC(=O)[C@H](CC3CCCCC3)NC(=O)[C@H](CCN)NC(=O)[C@@H](CC(C)C)NC(=O)[C@H](CCCN)NC(=O)[C@H](Cc3ccc(OCC(=O)O)cc3)NC(=O)[C@H](Cc3ccc(-c4ccccc4)cc3)NC(=O)[C@H](Cc3ccc(OCC(=O)O)cc3)NC2=O)c1` [Compound 2101] ({CH2CO}-[Dap]Y(Carboxymethyl)D[Phe(3-Me)]Y(Carboxymethyl)[Bip]Y(Carboxymethyl)[Orn][dL][Dab][Cha]V[hSer]C[Dab][Aun]-OH; thioether N-14), the half-maximal inhibitory concentration (IC50) was 16.2 nM.

Regarding `Cc1cccc(C[C@@H]2NC(=O)[C@H](CC(=O)O)NC(=O)[C@H](Cc3ccc(OCC(=O)O)cc3)NC(=O)[C@H](CCN)NC(=O)CSC[C@@H](C(=O)N[C@@H](CCN)C(=O)NCCOCCOCC(=O)NCCOCCOCC(=O)N[C@@H](CC(=O)NCCCCCCCCCCCCCCC(=O)O)C(=O)O)NC(=O)[C@H](Cc3c[nH]cn3)NC(=O)[C@H](C(C)(C)O)NC(=O)[C@H](CC3CCCCC3)NC(=O)[C@H](CCN)NC(=O)[C@@H](CC(C)C)NC(=O)[C@H](CCCN)NC(=O)[C@H](Cc3ccc(C(=O)O)cc3)NC(=O)[C@H](Cc3ccc(-c4ccccc4)cc3)NC(=O)[C@H](Cc3ccc(C(=O)O)cc3)NC2=O)c1` [Compound 1252] ({CH2CO}-[Dab]Y(Carboxymethyl)D[Phe(3-Me)][Phe(4-COOH)][Bip][Phe(4-COOH)][Orn][dL][Dab][Cha][Val(3-OH)]HC[Dab][AEEA][AEEA]D(NH(CH2)14COOH)-OH; thioether N-14), the IC50 came to 41.5 nM.

As to `CC(C)C[C@H]1NC(=O)[C@H](CCCN)NC(=O)[C@H](Cc2ccc(OCC(=O)O)cc2)NC(=O)[C@H](Cc2ccc(-c3ccccc3)cc2)NC(=O)[C@H](Cc2ccc(OCC(=O)O)cc2)NC(=O)[C@H](Cc2cccc(C(F)(F)F)c2)NC(=O)[C@H](CC(=O)O)NC(=O)[C@H](Cc2ccc(OCC(=O)O)cc2)NC(=O)[C@H](Cc2cnc[nH]2)NC(=O)CSC[C@@H](C(=O)N[C@@H](CCN)C(=O)NCCCCCCCCCCCCC(=O)O)NC(=O)[C@H](CO)NC(=O)[C@H](C(C)(C)O)NC(=O)[C@H](CC2CCCCC2)NC(=O)[C@H](CCN)NC1=O` [Compound 3836] ({CH2CO}-HY(Carboxymethyl)D[Phe(3-CF3)]Y(Carboxymethyl)[Bip]Y(Carboxymethyl)[Orn][dL][Dab][Cha][Val(3-OH)]SC[Dab]-{NH(CH2)12COOH}; thioether N-14), the half-maximal inhibitory concentration (IC50) turned out to be 45.6 nM.

Take `Cc1cccc(C[C@@H]2NC(=O)[C@H](CC(=O)O)NC(=O)[C@H](Cc3ccc(OCC(=O)O)cc3)NC(=O)[C@H](Cc3c[nH]cn3)NC(=O)CSC[C@@H](C(=O)N[C@@H](CCN)C(=O)NCCCCCCCCCCC(=O)O)NC(=O)[C@H](C(C)O)NC(=O)[C@H](C(C)C)NC(=O)[C@H](CC3CCCCC3)NC(=O)[C@H](CCN)NC(=O)[C@@H](CC(C)C)NC(=O)[C@H](CCCN)NC(=O)[C@H](CCCNC(N)=O)NC(=O)[C@H](Cc3ccc(-c4ccccc4)cc3)NC(=O)[C@H](C(C)C)NC2=O)c1` (stereo partly drawn) [Compound 3453] ({CH2CO}-HY(Carboxymethyl)D[Phe(3-Me)]V[Bip][Cit][Orn][dL][Dab][Cha]V[Thr(3ξ)]C[Dab][Aun]-OH; thioether N-14): the IC50 amounted to 19.9 nM.

With `Cc1cccc(C[C@@H]2NC(=O)[C@H](CC(=O)O)NC(=O)[C@H](Cc3ccc(CCC(=O)O)cc3)NC(=O)[C@H](CN)NC(=O)CSC[C@@H](C(=O)N[C@@H](CCN)C(=O)N[C@@H](CO)C(=O)NCCCCCCCCCCC(=O)O)NC(=O)[C@H]([C@@H](C)O)NC(=O)[C@H](C(C)C)NC(=O)[C@H](CC3CCCCC3)NC(=O)[C@H](CCN)NC(=O)[C@@H](CC(C)C)NC(=O)[C@H](CCCN)NC(=O)[C@H](CCCNC(N)=O)NC(=O)[C@H](Cc3ccc(-c4ccccc4)cc3)NC(=O)[C@H](C(C)C)NC2=O)c1` [Compound 2811] ({CH2CO}-[Dap][Phe(4-CH2CH2COOH)]D[Phe(3-Me)]V[Bip][Cit][Orn][dL][Dab][Cha]VTC[Dab]S[Aun]-OH; thioether N-14), the IC50 was 34.1 nM.

Regarding `CC[C@@H]1NC(=O)CSC[C@@H](C(=O)N[C@@H](CCN)C(=O)NCCOCCOCC(=O)N[C@@H](CCC(=O)NCCOCCOCC(=O)NCCCCCCCCCCCCC(=O)O)C(=O)O)NC(=O)[C@H](CO)NC(=O)[C@H](C(C)(C)O)NC(=O)[C@H](CC2CCCCC2)NC(=O)[C@H](CCN)NC(=O)[C@@H](CC(C)C)NC(=O)[C@H](CCCN)NC(=O)[C@H](Cc2ccc(C(=O)O)cc2)NC(=O)[C@H](Cc2ccc(-c3ccccc3)cc2)NC(=O)[C@H](Cc2ccc(C(=O)O)cc2)NC(=O)[C@H](Cc2cccc(C(F)(F)F)c2)NC(=O)[C@H](CC(=O)O)NC(=O)[C@H](Cc2ccc(OCC(=O)O)cc2)NC1=O` [Compound 2932] ({CH2CO}-[Abu]Y(Carboxymethyl)D[Phe(3-CF3)][Phe(4-COOH)][Bip][Phe(4-COOH)][Orn][dL][Dab][Cha][Val(3-OH)]SC[Dab][AEEA][γGlu][AEEA]-{NH(CH2)12COOH}; thioether N-14), the IC50 worked out at 33 nM.

`Cc1cccc(C[C@@H]2NC(=O)[C@H](CC(=O)O)NC(=O)[C@H](Cc3cccc(C#N)c3)NC(=O)[C@H]([C@@H](C)O)NC(=O)CSC[C@@H](C(=O)N[C@@H](CCN)C(=O)NCCCCCCCCCCC(=O)O)NC(=O)[C@H](CO)NC(=O)[C@H](C(C)(C)O)NC(=O)[C@H](CC3CCCCC3)NC(=O)[C@H](CCN)NC(=O)[C@@H](CC(C)C)NC(=O)[C@H](CCCN)NC(=O)[C@H](Cc3ccc(OCC(=O)O)cc3)NC(=O)[C@H](Cc3ccc(-c4ccccc4)cc3)NC(=O)[C@H](Cc3ccc(OCC(=O)O)cc3)NC2=O)c1` [Compound 2196] ({CH2CO}-T[Phe(3-CN)]D[Phe(3-Me)]Y(Carboxymethyl)[Bip]Y(Carboxymethyl)[Orn][dL][Dab][Cha][Val(3-OH)]SC[Dab][Aun]-OH; thioether N-14): the IC50 came to 24.4 nM.

Regarding `Cc1cccc(C[C@@H]2NC(=O)[C@H](CC(=O)O)NC(=O)[C@H](Cc3ccc(OCC(=O)O)cc3)NC(=O)[C@@H](CCCNC(=N)N)NC(=O)CSC[C@@H](C(=O)N[C@@H](CCN)C(=O)NCCCCCCCCCCC(=O)O)NC(=O)[C@H](CO)NC(=O)[C@H](C(C)(C)O)NC(=O)[C@H](CC3CCCCC3)NC(=O)[C@H](CCN)NC(=O)[C@@H](CC(C)C)NC(=O)[C@H](CCCN)NC(=O)[C@H](Cc3ccc(OCC(=O)O)cc3)NC(=O)[C@H](Cc3ccc(-c4ccccc4)cc3)NC(=O)[C@H](Cc3ccc(OCC(=O)O)cc3)NC2=O)c1` [Compound 2232] ({CH2CO}-[dR]Y(Carboxymethyl)D[Phe(3-Me)]Y(Carboxymethyl)[Bip]Y(Carboxymethyl)[Orn][dL][Dab][Cha][Val(3-OH)]SC[Dab][Aun]-OH; thioether N-14), the IC50 was 238 nM.

As to `CC(C)C[C@H]1NC(=O)[C@H](CCCN)NC(=O)[C@H](C(C)C)NC(=O)[C@H](Cc2ccc(-c3ccccc3)cc2)NC(=O)[C@H](C(C)C)NC(=O)[C@H](Cc2c[nH]c3ccccc23)NC(=O)[C@H](CC(=O)O)NC(=O)[C@H](Cc2ccc(C(=O)O)cc2)NC(=O)[C@H](Cc2ccc(OCC(=O)O)cc2)NC(=O)CSC[C@@H](C(=O)N[C@@H](CCCCN)C(=O)NCCCCCCCCCCC(=O)O)NC(=O)[C@H](CCCCN)NC(=O)[C@H](C(C)C)NC(=O)[C@H](CC2CCCCC2)NC(=O)[C@H](CCN)NC1=O` [Compound 2531] ({CH2CO}-Y(Carboxymethyl)[Phe(4-COOH)]DWV[Bip]V[Orn][dL][Dab][Cha]VKCK[Aun]-OH; thioether N-14), the concentration for half-maximal inhibition (IC50) was 22.2 nM.

For `CC(C)C[C@H]1NC(=O)[C@H](CCCN)NC(=O)[C@H](C(C)C)NC(=O)[C@H](Cc2ccc(-c3ccccc3)cc2)NC(=O)[C@H](C(C)C)NC(=O)[C@H](Cc2c[nH]c3ccccc23)NC(=O)[C@H](CC(=O)O)NC(=O)[C@H](Cc2ccc(OCC(=O)O)cc2)NC(=O)[C@H](CCCCNC(=N)N)NC(=O)CSC[C@@H](C(=O)NCC(=O)N[C@@H](CCCN)C(=O)NCCCCCCCCCCCC(=O)O)NC(=O)[C@H](CN)NC(=O)[C@H](C(C)C)NC(=O)[C@H](CC2CCCCC2)NC(=O)[C@H](CCN)NC1=O` [Compound 3175] ({CH2CO}-[hArg]Y(Carboxymethyl)DWV[Bip]V[Orn][dL][Dab][Cha]V[Dap]CG[Orn][12Ado]-OH; thioether N-14), the half-inhibitory concentration (IC50) was determined as 17.7 nM.
